Test results taken from PubChem BioAssay AID2060351 (Molecular Pharmacology Branch, DTP, NCI, 2025).
pIC50: −log10 of the molar value. “And” between values parts separate entries of the source, which are not always exact repeats. Equal values may be shown once.

Test system: 521955-158-R7-J2-PDC spheroids, viability % test/control
Test: Anticancer human tumor 521955-158-R7-J2-PDC patient-derived pancreatic carcinoma cell line growth inhibition [TAK]
Details: spheroids with HUVEC and MSC; for viability, T/C: stronger effect = lower value
Outline: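 Spheroids of 60% malignant cells, 25% HUVEC and 15% hMSC were exposed to targeted agents combined with TAK-243 or ipatasertib. Concentrations started at or near clinical Cmax (10 microM if unknown) and descended in half-log steps.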

[1] = curve of first compound, second compound 0.3 µM
[2] = curve of first compound, second compound 0.949 µM
[3] = curve of first compound, second compound 3 µM
[4] = curve of first compound, second compound 9.49 µM
[5] = curve of first compound, second compound 30 µM
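Further: spheroids exposed to compound for 7 days before readout.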
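Wherever viability, T/C is given: 100% = DMSO vehicle control wells.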

For `COC1CC2CCC(C)C(O)(O2)C(=O)C(=O)N2CCCCC2C(=O)OC(C(C)CC2CCC(OCCO)C(OC)C2)CC(=O)C(C)C=C(C)C(O)C(OC)C(=O)C(C)CC(C)C=CC=CC=C1C` (stereo not drawn), the viability, T/C (compound 0.000316 µM) was 103%, the viability, T/C (compound 0.001 µM) was 77.4% and 84.4% and the viability, T/C (compound 0.00316 µM) was 75.2% and 91.7%. The viability, T/C (compound 0.01 µM) was 90.3% and 101%, the viability, T/C (compound 0.0316 µM) was 109% and 117% and the viability, T/C (compound 0.1 µM) was 102% and 85.5%. For the same compound, the pIC50 (curve of compound) was under 7.00.

`COc1c(OCCCN2CCOCC2)ccc2c3n(c(=NC(=O)c4cnc(N)nc4)nc12)CCN3` was tested, and the viability, T/C (compound 0.00316 µM) was 87.5% and 86.9%, the viability, T/C (compound 0.01 µM) was 67.9% and 63.5% and the viability, T/C (compound 0.0316 µM) was 41.4% and 50.6%. For the same compound, the viability, T/C (compound 0.1 µM) was 26.5% and 25.3%, the viability, T/C (compound 0.316 µM) was 14.9% and 13.6% and the viability, T/C (compound 1 µM) was 10% and 10.6%. The pIC50 (curve of compound) was 7.65 and 7.60.

With `CC(C)CC(NC(=O)CNC(=O)c1cc(Cl)ccc1Cl)B1OC(=O)CC(CC(=O)O)(C(=O)O)O1` (stereo not drawn) the viability, T/C (compound 0.000316 µM) was 111% and 81.1%, the viability, T/C (compound 0.001 µM) was 73.9% and 80.3% and the viability, T/C (compound 0.00316 µM) was 90.1% and 80%. For the same compound, the viability, T/C (compound 0.01 µM) was 111% and 82.8%, the viability, T/C (compound 0.0316 µM) was 65.7% and 50.1% and the viability, T/C (compound 0.1 µM) was 2.27% and 1.64%. For the same compound, the pIC50 (curve of compound) was 7.38 and 7.50.

Compound `Cc1nc(NC(=O)N2CCCC2C(N)=O)sc1-c1ccnc(C(C)(C)C(F)(F)F)c1` (stereo not drawn) + CC(C)NCC(C(=O)N1CCN(c2ncnc3c2C(C)CC3O)CC1)c1ccc(Cl)cc1 has a pIC50 [1] of 5.25, a pIC50 [2] of 5.52 and a pIC50 [3] of 5.88. The pIC50 [4] was 6.42, the pIC50 [5] was 6.55 and the viability, T/C (second compound 0.3 µM, first compound 0.0316 µM) was 106%. For the same compound, the viability, T/C (second compound 0.3 µM, first compound 0.1 µM) was 106%, the viability, T/C (second compound 0.3 µM, first compound 0.316 µM) was 83.6% and the viability, T/C (second compound 0.3 µM, first compound 1 µM) was 62.2%. The viability, T/C (second compound 0.3 µM, first compound 3.16 µM) was 69.5%, the viability, T/C (second compound 0.3 µM, first compound 10 µM) was 38.6% and the viability, T/C (second compound 0.949 µM, first compound 0.0316 µM) was 84%. The viability, T/C (second compound 0.949 µM, first compound 0.1 µM) was 82.6%, the viability, T/C (second compound 0.949 µM, first compound 0.316 µM) was 64.6% and the viability, T/C (second compound 0.949 µM, first compound 1 µM) was 54.7%. It also gave a viability, T/C (second compound 0.949 µM, first compound 3.16 µM) of 60.5%, a viability, T/C (second compound 0.949 µM, first compound 10 µM) of 33.6% and a viability, T/C (second compound 3 µM, first compound 0.0316 µM) of 90%. The viability, T/C (second compound 3 µM, first compound 0.1 µM) was 79%, the viability, T/C (second compound 3 µM, first compound 0.316 µM) was 54.6% and the viability, T/C (second compound 3 µM, first compound 1 µM) was 57.3%. For the same compound, the viability, T/C (second compound 3 µM, first compound 3.16 µM) was 45.4%, the viability, T/C (second compound 3 µM, first compound 10 µM) was 30.8% and the viability, T/C (second compound 9.49 µM, first compound 0.0316 µM) was 92.6%. For the same compound, the viability, T/C (second compound 9.49 µM, first compound 0.1 µM) was 70.1%, the viability, T/C (second compound 9.49 µM, first compound 0.316 µM) was 48% and the viability, T/C (second compound 9.49 µM, first compound 1 µM) was 43%. For the same compound, the viability, T/C (second compound 9.49 µM, first compound 3.16 µM) was 36.7%, the viability, T/C (second compound 9.49 µM, first compound 10 µM) was 27.8% and the viability, T/C (second compound 30 µM, first compound 0.0316 µM) was 93.7%. It also gave a viability, T/C (second compound 30 µM, first compound 0.1 µM) of 79.7%, a viability, T/C (second compound 30 µM, first compound 0.316 µM) of 44.6% and a viability, T/C (second compound 30 µM, first compound 1 µM) of 43.2%. It also gave a viability, T/C (second compound 30 µM, first compound 3.16 µM) of 39.7% and a viability, T/C (second compound 30 µM, first compound 10 µM) of 25.6%.

In the case of `CC(=O)Nc1cccc(-n2c(=O)n(C3CC3)c(=O)c3c(Nc4ccc(I)cc4F)n(C)c(=O)c(C)c32)c1`, the viability, T/C (compound 94.9 pM) was 97.3% and 89.9%, the viability, T/C (compound 0.0003 µM) was 67.1% and 65.7% and the viability, T/C (compound 0.000949 µM) was 57.9% and 54.9%. The viability, T/C (compound 0.003 µM) was 48.7% and 39.5%, the viability, T/C (compound 0.00949 µM) was 32.1% and 27.2% and the viability, T/C (compound 0.03 µM) was 19.2% and 16.3%. For the same compound, the pIC50 (curve of compound) was 8.72 and 8.90.

Work on `CC(C)CC(NC(=O)C(Cc1ccccc1)NC(=O)c1cnccn1)B(O)O` (stereo not drawn) + CC(C)NCC(C(=O)N1CCN(c2ncnc3c2C(C)CC3O)CC1)c1ccc(Cl)cc1 yielded a pIC50 [1] of 8.25, a pIC50 [2] of 8.27 and a pIC50 [3] of 8.25. For the same compound, the pIC50 [4] was 8.28, the pIC50 [5] was 8.29 and the viability, T/C (second compound 0.3 µM, first compound 31.6 pM) was 113%. For the same compound, the viability, T/C (second compound 0.3 µM, first compound 0.0001 µM) was 87.5%, the viability, T/C (second compound 0.3 µM, first compound 0.000316 µM) was 92% and the viability, T/C (second compound 0.3 µM, first compound 0.001 µM) was 104%. For the same compound, the viability, T/C (second compound 0.3 µM, first compound 0.00316 µM) was 92.7%, the viability, T/C (second compound 0.3 µM, first compound 0.01 µM) was 6.67% and the viability, T/C (second compound 0.949 µM, first compound 31.6 pM) was 94.7%. The viability, T/C (second compound 0.949 µM, first compound 0.0001 µM) was 82.4%, the viability, T/C (second compound 0.949 µM, first compound 0.000316 µM) was 77.3% and the viability, T/C (second compound 0.949 µM, first compound 0.001 µM) was 82.8%. It also gave a viability, T/C (second compound 0.949 µM, first compound 0.00316 µM) of 92.2%, a viability, T/C (second compound 0.949 µM, first compound 0.01 µM) of 8.18% and a viability, T/C (second compound 3 µM, first compound 31.6 pM) of 93.4%. It also gave a viability, T/C (second compound 3 µM, first compound 0.0001 µM) of 101%, a viability, T/C (second compound 3 µM, first compound 0.000316 µM) of 86.6% and a viability, T/C (second compound 3 µM, first compound 0.001 µM) of 84.9%. It also gave a viability, T/C (second compound 3 µM, first compound 0.00316 µM) of 93.1%, a viability, T/C (second compound 3 µM, first compound 0.01 µM) of 7.99% and a viability, T/C (second compound 9.49 µM, first compound 31.6 pM) of 92.7%. For the same compound, the viability, T/C (second compound 9.49 µM, first compound 0.0001 µM) was 95.9%, the viability, T/C (second compound 9.49 µM, first compound 0.000316 µM) was 68.7% and the viability, T/C (second compound 9.49 µM, first compound 0.001 µM) was 80%. It also gave a viability, T/C (second compound 9.49 µM, first compound 0.00316 µM) of 82.7%, a viability, T/C (second compound 9.49 µM, first compound 0.01 µM) of 7.48% and a viability, T/C (second compound 30 µM, first compound 31.6 pM) of 86.8%. The viability, T/C (second compound 30 µM, first compound 0.0001 µM) was 83.7%, the viability, T/C (second compound 30 µM, first compound 0.000316 µM) was 75.4% and the viability, T/C (second compound 30 µM, first compound 0.001 µM) was 78%. The viability, T/C (second compound 30 µM, first compound 0.00316 µM) was 84.1% and the viability, T/C (second compound 30 µM, first compound 0.01 µM) was 5.06%.
